Assay results reported in US10850274B2, “Microfluidic assisted perfusion devices” (The Regents of the University of California, priority 2015, dated 2020).

Legend:
MCF7 spheroids = test: Change in MCF7 spheroid size after Doxorubicin treatment in tumor-on-a-chip device; type: cell-based; settings: for decrease in spheroid area: 3 days (D8 area normalized to D5)
Experimental: HUVECs and MCF7 spheroids were encapsulated within GelMA hydrogels. The MCF spheroids were passed through a cell strainer having 100 μm pore size (Corning) to eliminate single cells and small spheroids. Around 50 spheroids with a diameter of ˜200 μm were dispersed in 5 mL of PBS containing 2 million HUVEC cells. The mixture was centrifuged for 3 minutes at 800 rpm. The supernatant was aspirated and 100 μL of 10% GelMA solution was added to the cell pellet. The cells were re-suspended gently using a pipette before the addition of 0.01% ascorbic acid (antioxidant) and 2 μM LAP (photoinitiator) to the solution. This solution was again mixed gently, drawn into a syringe, and injected into the microfluidic device (FIG. 8, step G).
This device was placed onto a transparency film photomask containing an ellipse pattern and mounted onto a microscope stage (FIG. 8, steps H-I). Using the stage controller of the microscope, the position of the fluidic device was moved to locate individual MCF7 spheroids surrounded by HUVECs under bright field illumination. Each location was exposed to UV light with an excitation and emission wavelengths of approximately 358 and 463 nm, respectively, for 18 seconds. Several locations were photopolymerized before flushing the device with PBS containing 4% Penicillin/Streptomycin. Mixed Media (MM) containing 50% GM and 50% HM was subsequently injected into the device and the GelMA structures containing MCF7 spheroids and HUVECs were cultured at 37° C. and 10% CO2.
Brightfield images of the GelMA hydrogels containing the spheroids and HUVECs were recorded as a function of culture time (1-5 days) to examine their growth post-encapsulation. The area of the spheroid was quantified by tracing the boundary of the spheroid using the free-hand selection tool on ImageJ. […]
The potential of the device as a drug screening platform was assessed by analyzing the effects of Doxorubicin on HUVEC barrier and the tumor spheroids. […] To quantify the effects of Doxorubicin, the changes in spheroid size was analyzed before and after treatment with varying concentrations of the drug.

HUVECs = test: Effect of Doxorubicin on HUVEC endothelial barrier around GelMA structures
Experimental: HUVECs and MCF7 spheroids were encapsulated within GelMA hydrogels.
Doxorubicin (Cat. No. D1515, Sigma-Aldrich) was weighed and dissolved in DMSO to achieve a concentration of 100 mg/mL. This solution was distributed into small aliquots and stored in −20° C. The stock solution was thawed and diluted to 100 μg/mL in pre-warmed MM (˜37° C.) and sterilized using a DMSO-resistant syringe filter (Pall Corporations). This 100 μg/mL solution was further diluted in MM to acquire doxorubicin concentrations of 1 and 10 μg/mL used herein.
The potential of the device as a drug screening platform was assessed by analyzing the effects of Doxorubicin on HUVEC barrier and the tumor spheroids. Cell laden GelMA structures, cultured for 5 days, were exposed to different concentrations of Doxorubicin (1, 10, and 100 μg/mL) for 3 days.

[1] = system: neonatal mouse cardiomyocytes
Experimental: Isolated primary neonatal cardiomyocytes were mixed with 8.5% wt/vol GelMa solution containing 0.01% wt/vol of ascorbic acid and 2 mM lithium phenyl-2,4,6-trimethylbenoylphosphinate (LAP). This solution was injected into the fluidics chamber (see FIG. 3D) and a dark transparency mask containing the clear ellipse patterns was placed under the circular chamber of the device. The GelMa solution was photo-polymerized using a UV light source with an excitation wavelength of 365±40 nm (see FIG. 3E). The regions of the hydrogel precursor solution exposed to UV light polymerized rapidly, thereby forming the microtissues with cells encapsulated within (see FIG. 3E). The unreacted hydrogel precursor solution was removed from the fluidics chamber by injecting PBS in excess (see FIG. 3F). Thus, the 3D device with patterned cardiac-microtissues between hydrogels was created (see FIG. 3G). The device was then perfused with cardiomyocyte growth media and incubated at 37° C. and 10% CO2 culture conditions. […]
To quantify the forces generated by the cardiomyocytes, the propagation of forces originating from the GelMA structures were exploited to PAm hydrogels. […] In addition, a measured value of 8.5 kPa was used for the elastic modulus of the PAm hydrogel and 0.45 for Poisson's ratio.
By treating the PAm hydrogel as a 3 dimensional block tethered at the bottom in mechanical equilibrium, a finite element (FE) approach was used to solve a series of electrostatics equations. […] To obtain the input for the boundary condition at the top surface of the gel, the displacement of the hydrogel was quantified by tracking the fluorescent particles embedded within the network using particle image velocimetry (PIV). […]
Using this approach, fluorescent images were obtained of the green beads embedded within PAm at a frequency of 9 frames per second in order to capture the contraction profile of the cardiomyocytes at 20× magnification. […] Using the FE approach, the traction stress field caused by the cellular forces was calculated.

Row | Structure (SMILES) | spheroid growth less than those cultured in the absence of the drug (MCF7 spheroids; 1 μg/mL Doxorubicin, 3 days, growth still observed) | decrease in spheroid area (MCF7 spheroids; 10 μg/mL Doxorubicin) | decrease in spheroid area (MCF7 spheroids; 100 μg/mL Doxorubicin) | presence of endothelial barrier (HUVECs; at and above 10 μg/mL of Doxorubicin, D8) | endothelial barrier (HUVECs; high doses of Doxorubicin (>10 μg/mL)) | endothelial barrier (cytotoxicity to HUVECs) (HUVECs; upon exposure to Doxorubicin, 3 days) | magnitude of contraction ([1]; addition of epinephrine (0.1 μg/mL)) | ratio of residual stress in the presence of epinephrine to absence of epinephrine ([1]; multiple microtissues, cultured 7 days, value <1 = decrease, epinephrine 0.1 μg/mL) | ratio of force amplitude in the presence of epinephrine to absence of epinephrine ([1]; multiple microtissues, cultured 7 days, value >1 = increase, epinephrine 0.1 μg/mL)
1 | COc1cccc2c1C(=O)c1c(O)c3c(c(O)c1C2=O)C[C@@](O)(C(=O)CO)C[C@@H]3O[C@H]1C[C@H](N)[C@H](O)[C@H](C)O1 [Doxorubicin] | ~20% | ~7% | ~15% | lack thereof | loss of the endothelial barrier | disappeared |  |  | 
2 | CNC[C@H](O)c1ccc(O)c(O)c1 [epinephrine] |  |  |  |  |  |  | increased | ~0.9 | ~1.4
